“Also recorded” adds a separate entry of the source.
Columns and labels:
[1] = target: T1, uracil monophosphate synthetase (UMPS) overexpressed in HEK cells (Homo sapiens, UniProt P11172); test: RNA incorporation with overexpression of UMPS, dot blot; assay type: cell-based; conditions: 1 mM, 24 hours, FIG. 12
T1 construct: expressed in transfected cells; host or cells: HEK cells
T1 sequence (P11172 1-480): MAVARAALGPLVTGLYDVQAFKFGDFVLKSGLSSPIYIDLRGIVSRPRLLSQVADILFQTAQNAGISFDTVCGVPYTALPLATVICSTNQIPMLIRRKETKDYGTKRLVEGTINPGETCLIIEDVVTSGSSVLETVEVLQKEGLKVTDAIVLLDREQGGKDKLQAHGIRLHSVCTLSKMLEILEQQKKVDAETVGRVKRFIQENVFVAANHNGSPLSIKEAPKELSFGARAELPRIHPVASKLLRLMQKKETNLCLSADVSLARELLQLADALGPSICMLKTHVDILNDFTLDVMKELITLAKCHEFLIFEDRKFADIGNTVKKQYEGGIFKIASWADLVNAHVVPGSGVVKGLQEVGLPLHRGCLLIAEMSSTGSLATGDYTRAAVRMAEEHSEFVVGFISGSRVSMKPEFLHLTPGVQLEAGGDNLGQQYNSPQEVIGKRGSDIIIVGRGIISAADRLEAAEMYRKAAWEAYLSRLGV
Protocol: Analogs were incubated for 24 hours at 1 mM concentration in HEK cells. RNA was extracted and biotinylated using MTSEA-Biotin, followed by dot-blot analysis. Strep-HRP=Streptavidin conjugated Horseradish peroxidase. MeBI=methylene blue staining serving as loading control.

[2] = test system: GFP-3×MT-TgUPRT HEK293T cells co-cultured with mCherry cells; test: Co-culture RT-qPCR enrichment of GFP transcript over mCherry; assay type: cell-based
Protocol: FIGS. 10A, 10B, 100, 10D, 10E show characterizing the stringency of the 2 (5VU)-mutant TgUPRT pair. […] Cells were transfected with TgUPRT variants and incubated with 2 at 1 mM final concentration for 24h. 2 incorporation was imaged using two-step labeling (1) IEDDA using tetrazene-biotin then followed by Alexa488-streptavidin. […] Streptavidin-HRP (Strep-HRP) was used for assessment of biotin level resulting from clicked RNA, and methylene blue (MeBI) staining served as loading control. […] Cells were treated the same as in panel 10B and the RNA appended with biotin and enriched before RT RT-qPCR.
Co-culture of HEK cells containing GFP or mCherry expression plasmids: HEK293 (5×105) cells seeded in 6-well plate. Thirty-six hour post seeding, HEK cells were transfected with 1 μg of single plasmid containing EGFP, mCherry, EGFP-TgUPRT-WT, or EGFP-TgUPRT-Mut. Twenty-four hour post transfection, transiently transfected HEK cells were trypsinized and seeded into a 5 cm plate. Equal amounts of cells (approximately 2×106 in total) where 1×10^6 cells containing GFP or GFP-TgUPRT plasmids and 1×10^6 cells containing mCherry construct) were co-cultured. Three co-culture conditions are Condition (A): mCherry and EGFP, Condition (B): mCherry and EGFP-WT-TgUPRT, and Condition (C): mCherry and EGFP-3×MT-TgUPRT (pKN-CMV-EGFP-TgUPRT-Mut16 or -Mut17). […]

C=Cc1c[nH]c(=O)[nH]c1=O [compound 2, 5-Vinylpyrimidine-2,4(1H,3H)-dione]
incorporation into cellular RNA with UMPS overexpression [1]: did not result in 2 incorporation into RNA and not
enrichment of GFP transcript, triple mutant cells compared to no UPRT cells ([2]; {}): ~100 fold

C#Cc1c[nH]c(=O)[nH]c1=O [compound 1, 5-ethynylpyrimidine-2,4(1H,3H)-dione]
incorporation into cellular RNA with UMPS overexpression [1]: higher amount; also recorded: incorporation
enrichment of GFP transcript in -UPRT cells ([2]; co-culture, RT-qPCR): Background enrichment

— patent US20240117431A1, “STEM-CELL BASED BIOMARKER DISCOVERY” (THE REGENTS OF THE UNIVERSITY OF CALIFORNIA, priority 2020, published 2024)
